pIC50: −log10 of the molar value.
Target: T1, CRBN Cys287 (Homo sapiens, UniProt Q96SW2)
T1 construct: endogenous in cells
Experiment: Inhibition of iodoacetamide probe labeling of CRBN cysteines, cell lysate (Table 3A)
Assay type: binding
Settings: 7.8 micromolar, cell lysate, 1 h
Protocol: “X@Y” means that x % inhibition of iodoacetamide probe labeling was observed by treatment of cell lysate with the give compound in each row of the table for 1 h at a concentration of y micromolar. There was consistently high inhibition at C318 in addition to C287, which can be attributed to an allosteric inhibition.

T1 sequence (Q96SW2 whole entry): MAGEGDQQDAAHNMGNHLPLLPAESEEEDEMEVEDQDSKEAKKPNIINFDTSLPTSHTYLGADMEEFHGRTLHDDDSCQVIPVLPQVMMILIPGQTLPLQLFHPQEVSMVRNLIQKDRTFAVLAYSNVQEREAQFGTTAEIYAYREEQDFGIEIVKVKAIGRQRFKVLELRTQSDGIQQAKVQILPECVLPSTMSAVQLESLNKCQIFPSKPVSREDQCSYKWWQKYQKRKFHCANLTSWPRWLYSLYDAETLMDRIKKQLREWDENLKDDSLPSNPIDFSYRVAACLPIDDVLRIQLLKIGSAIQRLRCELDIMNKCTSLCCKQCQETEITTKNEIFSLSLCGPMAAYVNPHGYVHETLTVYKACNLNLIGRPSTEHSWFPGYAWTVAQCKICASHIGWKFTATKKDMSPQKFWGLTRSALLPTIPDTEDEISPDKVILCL

| inhibition at 7.8 µM [%] | Structure (SMILES) |
| --- | --- |
| 96 | COc1ccccc1-c1cc(C#N)cc(OC2CCN(C(=O)/C(C#N)=C/C(C)(C)C)CC2)c1 [Example A4] |

Same assay, conditions: 31.2 micromolar, cell lysate, 1 h; read-out: % inhibition of iodoacetamide probe labeling, Cys287

| inhibition at 31.2 µM [%] | Structure (SMILES) |
| --- | --- |
| 82 | CC(/C=C(\C#N)C(=O)N1CCC(Oc2cccc(C#N)c2)CC1)c1ccccc1 (centres unmarked) [Example A6] |
| 97 | COc1ccccc1-c1cc(C#N)cc(OC2CCN(C(=O)/C(C#N)=C/C(C)(C)C)CC2)c1 [Example A4] |

Same assay, conditions: 125 micromolar, cell lysate, 1 h; read-out: % inhibition of iodoacetamide probe labeling, Cys287

| inhibition at 125 µM [%] | Structure (SMILES) |
| --- | --- |
| 94 | CC(/C=C(\C#N)C(=O)N1CCC(Oc2cccc(C#N)c2)CC1)c1ccccc1 (centres unmarked) [Example A6] |

Same assay, conditions: 500 micromolar, cell lysate, 1 h; read-out: % inhibition of iodoacetamide probe labeling, Cys287

| inhibition at 500 µM [%] | Structure (SMILES) |
| --- | --- |
| 95 | CC(/C=C(\C#N)C(=O)N1CCC(Oc2cccc(C#N)c2)CC1)c1ccccc1 (centres unmarked) [Example A6] |
| 99 | COc1ccccc1-c1cc(C#N)cc(OC2CCN(C(=O)/C(C#N)=C/C(C)(C)C)CC2)c1 [Example A4] |

Same assay, conditions: read-out: % inhibition of iodoacetamide probe labeling, Cys287

| inhibition at 0.49 µM [%] | inhibition at 2 µM [%] | inhibition at 125 µM [%] | Structure (SMILES) |
| --- | --- | --- | --- |
| 62 | 77 |  | CC(/C=C(\C#N)C(=O)N1CCC(Oc2cccc(C#N)c2)CC1)c1ccccc1 (centres unmarked) [Example A6] |
|  |  | 99 | COc1ccccc1-c1cc(C#N)cc(OC2CCN(C(=O)/C(C#N)=C/C(C)(C)C)CC2)c1 [Example A4] |

Target: T2, CRBN_C287 (Homo sapiens, UniProt Q96SW2)
T2 construct: endogenous in cells; host or cells: cell lysate
Experiment: CRBN C287 inhibition, probe labeling in lysate (Example 42)
Assay type: binding
Settings: 500 uM, lysate, 1 h; read-out: % inh @ 500 uM (CRBN_C287, lysate 1 h)
Protocol: The following 96-well sample prep protocol was used for sample preparation.
Cells were resuspended in cold PBS on ice and sonicated with a probe sonicator to achieve lysis. 200 μL of lysate containing 5 mg/ml proteome was treated with 2 μL of 100× compound stock in a 2-mL deep-well plate. The treated lysate was subsequently incubate at 25° C. for 1 hr with shaking at 600 rpm. The treated lysate was further incubated with 2 μL of 10 mM desthiobiotin iodoacetamide probe at 25° C. for 1 hr with shaking at 600 rpm. […] 1.7 mL ice-cold acetone was added to each well and incubated at −20° C. for 2 hr, followed by max speed (4200 rpm) spin for 45 min. Acetone was then decanted and the plates were blotted to remove acetone. The plates were then dried in open air for 20 minutes. After drying, the plates were then covered with foil seal and stored at −80° C. overnight.
The next day, samples were re-suspended in 90 μL of solution of 9M urea, 50 mM ammonium bicarbonate and 10 mM DTT by incubating at 65° C. for 20 min with shaking at 1500 rpm. […] The samples were then incubated at 37° C. for 30 min with shaking at 600 rpm.
ZEBA desalting plates were equilibrated 4 times using 250 μL of 2M urea, 50 mM ammonium bicarbonate solution followed by centrifugation at 1500 rpm for 2 minutes. After equilibration was complete, samples were applied to ZEBA desalting plate and spin at 1500 rpm for 2 min on top of 1 mL 96-well deep-well collection plate to buffer exchange samples. 4 μL of solution containing 25 mM CaCl2 and 0.25 mg/mL trypsin was added to the plate and the plate was then incubated at 37° C. for 2 hrs with shaking at 600 rpm. 300 μL of solution containing 5% high-capacity streptavidin agarose slurry in 25 mM Tris-HCl pH 7.5, 150 mM NaCl, and 0.1% NP-40 then added. The plate was incubated at 25° C. for 2 hrs with shaking at 600 rpm. Samples were transferred to 25 μm filter plate and spin at 1000 rpm for 2 min. Samples were then washed 3 times with 0.75 mL of wash buffer (25 mM Tris-HCl pH 7.5, 150 mM NaCl, and 0.1% NP-40) followed by washing 3 times with 0.75 mL PBS, and then 4 times with 0.75 mL water. After the washing step, samples were eluted into polypropylene 96-well plate by addition of 250 μL of 50% MeCN/water, 0.1% formic acid and allowed to gravity drip for 10 min, followed by centrifugation at 1000 rpm for 2 min. Speedvac was used to dry the plates at about 45° C. for […]. Then the plates were covered with foil seal and stored at −20° C.
Then add 30 μL of 0.1% formic acid solution was added and the plate was covered and incubated at 42° C. for 10 minutes with shaking at 600 rpm. Seal plate was then sealed with a 96-well silicon mat for analysis.

T2 sequence (Q96SW2 whole entry): as above

| Structure (SMILES) | inhibition at 500 µM [%] |
| --- | --- |
| C=CC(=O)N1CCC(Oc2cccc(-c3ccccc3)c2C#N)CC1 [Example 19] | 68.2 |
| C=CC(=O)N1CCC(Oc2cccc(-c3ccccc3OCC)c2)CC1 [Example 2] | 59.8 |
| C=CC(=O)N1CCC(Oc2cc(OC)cc(-c3ccccc3)c2)CC1 [Example 23] | 91.1 |
| COc1ccccc1-c1cc(C#N)cc(OC2CCN(C(=O)/C=C/CN3CCOCC3)CC2)c1 [Example 12] | 87.2 |
| C=CC(=O)N1CCC(Oc2cc(C(N)=O)cc(-c3ccccc3OC)c2)CC1 [Example 22] | 95.2 |
| COc1ccccc1-c1cccc(OC2CCN(C(=O)/C=C/CN(C)C)CC2)c1 [Example 11] | 92.9 |
| C=CC(=O)N1CCC(Oc2cccc(-c3ccccc3OC)c2Cl)CC1 [Example 18] | 60.4 |
| C=CC(=O)N1CCC(Oc2cc(C(=O)NC)cc(-c3ccccc3OC)c2)CC1 [Example 26] | 77.4 |
| CN(C)C/C=C/C(=O)N1CCC(Oc2cccc(-c3ccccc3)c2)CC1 [Example 10] | 52.4 |
| C=CC(=O)N1CCC(Oc2cccc(-c3ccccc3O)c2)CC1 [Example 3] | 48.9 |
| C=CC(=O)N1CCC(Oc2cc(Cl)cc(-c3ccccc3)c2)CC1 [Example 6] | 72.2 |
| C=CC(=O)N1CCC(Oc2cccc(-c3ccccc3Cl)c2)CC1 [Example 4] | 64.8 |
| C=CC(=O)N1CCC(Oc2cccc(-c3ccccc3OC)c2C#N)CC1 [Example 20] | 57.6 |
| C=CC(=O)N1CCC(Oc2cc(Cl)cc(-c3ccccc3OC)c2)CC1 [Example 5] | 88.5 |
| C=CC(=O)N1CCC(Oc2cc(-c3ccccc3OC)ccc2C(N)=O)CC1 [Example 21] | 64.6 |
| C#CC(=O)N1CCC(Oc2cccc(-c3ccccc3)c2)CC1 [Example 8] | 76.8 |
| C=CC(=O)N1C2CCC1CC(Oc1cc(C#N)cc(-c3ccccc3OC)c1)C2 [Example 38, 5-(((1R,3s,5S)-8-acryloyl-8-azabicyclo[3.2.1]octan-3-yl)oxy)-2′-methoxy-[1,1′-biphenyl]-3-carbonitrile] | 78 |
| C#CC(=O)N1CCC(Oc2cccc(-c3ccccc3OC)c2)CC1 [Example 9] | 88.8 |

Second part, the compound after the results:

| inhibition at 500 µM [%] | Structure (SMILES) |
| --- | --- |
| 89.3 | C=CC(=O)N1CCC(Oc2cc(OC)cc(-c3ccccc3OC)c2)CC1 [Example 24] |
| 74.8 | C=CC(=O)N1CCC(Oc2cccc(-c3ccc(F)cc3OC)c2)CC1 [Example 1, 1-(4-((4′-fluoro-2′-methoxy-[1,1′-biphenyl]-3-yl)oxy)piperidin-1-yl)prop-2-en-1-one] |
| 91.2 | C=CC(=O)N1CCC(Oc2cccc(-c3ccccc3OC)c2)CC1 [Example 7] |
| 94.5 | C=CC(=O)N1CCC(Oc2cc(C#N)cc(-c3ccccc3OC)c2)CC1 [Example 14] |
| 81.3 | C=CC(=O)N1CCC(Oc2cc(C#N)cc(-c3ccccc3)c2)CC1 [Example 13] |

Same assay, conditions: CRBN_C287, lysate 1 h

| CRBN_C287 inhibition, result in words | Structure (SMILES) |
| --- | --- |
| No activity | C=CC(=O)N1CCC(Oc2ccc(-c3ccc(S(C)(=O)=O)cc3)cc2)CC1 |
| No activity | C=CC(=O)N1CCn2c(nnc2C(F)(F)F)C1 |

Same assay, conditions: TE50, CRBN_C287, lysate 1 h

| Structure (SMILES) | pIC50 |
| --- | --- |
| C=CC(=O)N1CCC(Oc2cc(C#N)cc(-c3ccccc3OC)c2)C(C)C1 (single isomer, unassigned) [Example 34, 5-((1-acryloyl-3-methylpiperidin-4-yl)oxy)-2′-methoxy-[1,1′-biphenyl]-3-carbonitrile] | 5.05 |
| C=CC(=O)N1CCC(Oc2cc(C#N)cc(-c3ccccc3CC)c2)CC1 [Example 15] | 4.65 |
| C=CC(=O)N1CCC(Oc2cc(OC(F)(F)F)cc(-c3ccccc3OC)c2)CC1 [Example 41, 1-(4-((2′-methoxy-5-(trifluoromethoxy)-[1,1′-biphenyl]-3-yl)oxy)piperidin-1-yl)prop-2-en-1-one] | 4.51 |
| C=CC(=O)N1CC[C@@H](Oc2cc(C#N)cc(-c3ccccc3OC)c2)[C@@H](F)C1 [Example 32, 5-(((3S,4R)-1-acryloyl-3-fluoropiperidin-4-yl)oxy)-2′-methoxy-[1,1′-biphenyl]-3-carbonitrile] | 5.83 |
| C=CC(=O)N1CC[C@H](Oc2cc(C#N)cc(-c3ccccc3OC)c2)[C@@H](F)C1 [Example 29, 5-(((3S,4S)-1-acryloyl-3-fluoropiperidin-4-yl)oxy)-2′-methoxy-[1,1′-biphenyl]-3-carbonitrile] | 5.90 |
| C=CC(=O)N1[C@@H]2CC[C@H]1C[C@H](Oc1cc(C(N)=O)cc(-c3ccccc3OC)c1)C2 [Example 39, 5-(((1R,3s,5S)-8-acryloyl-8-azabicyclo[3.2.1]octan-3-yl)oxy)-2′-methoxy-[1,1′-biphenyl]-3-carboxamide] | 4.28 |
| C=CC(=O)N1CCC(Oc2cc(-c3ccccc3OC)cc(C#N)n2)CC1 [Example 28, 6-((1-acryloylpiperidin-4-yl)oxy)-4-(2-methoxyphenyl)picolinonitrile] | 4.10 |
| COc1ccccc1-c1cc(C#N)cc(OC2CCN(C(=O)/C(C#N)=C/C(C)C)CC2)c1 [Example 16] | 6.92 |
| C=CC(=O)N1CC(Oc2cc(C#N)cc(-c3ccccc3OC)c2)C1 [Example 36, 5-((1-acryloylazetidin-3-yl)oxy)-2′-methoxy-[1,1′-biphenyl]-3-carbonitrile] | 6.92 |

Second part, the compound after the results:

| pIC50 | Structure (SMILES) |
| --- | --- |
| 5.59 | C#CCOCCOCCOCCOc1ccc(OC)c(-c2cc(C#N)cc(OC3CCN(C(=O)C=C)CC3)c2)c1 [Example 40, 3-[2-methoxy-5-[2-[2-(2-prop-2-ynoxyethoxy)ethoxy]ethoxy]phenyl]-5-[(1-prop-2-enoyl-4-piperidyl)oxy]benzonitrile] |
| 5.12 | C=CC(=O)N1CCC(Oc2cc(-c3ccccc3OC)cnn2)CC1 [Example 27, 1-(4-((5-(2-methoxyphenyl)pyridazin-3-yl)oxy)piperidin-1-yl)prop-2-en-1-one] |
| 6.54 | C=CC(=O)N1CC[C@H](Oc2cc(C#N)cc(-c3ccccc3OC)c2)[C@H](F)C1 [Example 31, 5-(((3R,4S)-1-acryloyl-3-fluoropiperidin-4-yl)oxy)-2′-methoxy-[1,1′-biphenyl]-3-carbonitrile] |
| 5.01 | C=CC(=O)N1CCC(Oc2cc(C#N)cc(-c3ccccc3OC)c2)C(C)C1 (single isomer, unassigned) [Example 35, 5-((1-acryloyl-3-methylpiperidin-4-yl)oxy)-2′-methoxy-[1,1′-biphenyl]-3-carbonitrile] |
| 6.40 | C=CC(=O)N1CC[C@@H](Oc2cc(C#N)cc(-c3ccccc3OC)c2)[C@H](F)C1 [Example 30, 5-(((3R,4R)-1-acryloyl-3-fluoropiperidin-4-yl)oxy)-2′-methoxy-[1,1′-biphenyl]-3-carbonitrile] |
| 4.51 | C=CC(=O)N1CCC(Sc2cccc(-c3ccccc3OC)c2)CC1 [Example 37, 1-(4-((2′-methoxy-[1,1′-biphenyl]-3-yl)thio)piperidin-1-yl)prop-2-en-1-one] |
| 5.33 | C=CC(=O)N1CCC(Oc2cc(C#N)cc(-c3ccccc3OC)c2)C(C)C1 (single isomer, unassigned) [Example 33, 5-((1-acryloyl-3-methylpiperidin-4-yl)oxy)-2′-methoxy-[1,1′-biphenyl]-3-carbonitrile] |

From US20220298213A1, “IN VIVO ENGINEERED CEREBLON PROTEIN” (Vividion Therapeutics, Inc., priority 2018, published 2022)
